Tested on: 565726-208-R1-J5-PDC complex spheroids, growth inhibition
Assay: Anticancer human tumor 565726-208-R1-J5-PDC patient-derived pancreatic adenocarcinoma cell line growth inhibition [RAS]
Conditions: for IC50: curve of first compound; for viability, T/C: stronger effect = lower value
Summary of the method: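 Tumour cells grown as complex spheroids with HUVEC endothelial cells and mesenchymal stem cells, treated with RAS pathway inhibitor combinations. Each agent spans half-log steps from near clinical Cmax, or 10 microM where Cmax is unknown.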

[1] = second compound 0.00316 µM, first compound 0.0316 µM
[2] = second compound 0.00316 µM, first compound 0.1 µM
[3] = second compound 0.00316 µM, first compound 0.316 µM
[4] = second compound 0.00316 µM, first compound 1 µM
[5] = second compound 0.00316 µM, first compound 3.16 µM
[6] = second compound 0.00316 µM, first compound 10 µM
[7] = second compound 0.01 µM, first compound 0.0316 µM
[8] = second compound 0.01 µM, first compound 0.1 µM
[9] = second compound 0.01 µM, first compound 0.316 µM
[10] = second compound 0.01 µM, first compound 1 µM
[11] = second compound 0.01 µM, first compound 3.16 µM
[12] = second compound 0.01 µM, first compound 10 µM
[13] = second compound 0.0316 µM, first compound 0.0316 µM
[14] = second compound 0.0316 µM, first compound 0.1 µM
[15] = second compound 0.0316 µM, first compound 0.316 µM
[16] = second compound 0.0316 µM, first compound 1 µM
[17] = second compound 0.0316 µM, first compound 3.16 µM
[18] = second compound 0.0316 µM, first compound 10 µM
[19] = second compound 0.1 µM, first compound 0.0316 µM
[20] = second compound 0.1 µM, first compound 0.1 µM
[21] = second compound 0.1 µM, first compound 0.316 µM
[22] = second compound 0.1 µM, first compound 1 µM
[23] = second compound 0.1 µM, first compound 3.16 µM
[24] = second compound 0.1 µM, first compound 10 µM
[25] = second compound 0.316 µM, first compound 0.0316 µM
[26] = second compound 0.316 µM, first compound 0.1 µM
[27] = second compound 0.316 µM, first compound 0.316 µM
[28] = second compound 0.316 µM, first compound 1 µM
[29] = second compound 0.316 µM, first compound 3.16 µM
[30] = second compound 0.316 µM, first compound 10 µM
[31] = second compound 1 µM, first compound 0.0316 µM
[32] = second compound 1 µM, first compound 0.1 µM
[33] = second compound 1 µM, first compound 0.316 µM
[34] = second compound 1 µM, first compound 1 µM
[35] = second compound 1 µM, first compound 3.16 µM
[36] = second compound 1 µM, first compound 10 µM
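Further: spheroids exposed to compounds for seven days before readout.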
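Wherever viability, T/C is given: 100% = DMSO vehicle control viability.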

CC1(O)CCCC1n1c(=O)c(C(F)F)cc2cnc(NC3CCN(S(C)(=O)=O)CC3)nc21 (stereo unspecified) + C=CC(=O)N1CCN(c2nc(OCC3CCCN3C)nc3c(F)c(-c4nc(N)cc(C)c4C(F)(F)F)c(Cl)cc23)C(C)C1
IC50 (second compound 0.00316 µM): 4.25 µM | IC50 (second compound 0.01 µM): 3.86 µM | IC50 (second compound 0.0316 µM): 1.88 µM | IC50 (second compound 0.1 µM): 3.18 µM | IC50 (second compound 0.316 µM): 3.14 µM | IC50 (second compound 1 µM): 3.09 µM | viability, T/C [1]: 84.6% | viability, T/C [2]: 101% | viability, T/C [3]: 69.9% | viability, T/C [4]: 77.8% | viability, T/C [5]: 67.8% | viability, T/C [6]: 7.33% | viability, T/C [7]: 111% | viability, T/C [8]: 116% | viability, T/C [9]: 71.8% | viability, T/C [10]: 78.2% | viability, T/C [11]: 73.2% | viability, T/C [12]: 8.22% | viability, T/C [13]: 122% | viability, T/C [14]: 119% | viability, T/C [15]: 61.8% | viability, T/C [16]: 68.8% | viability, T/C [17]: 59.5% | viability, T/C [18]: 4.81% | viability, T/C [19]: 117% | viability, T/C [20]: 116% | viability, T/C [21]: 63.8% | viability, T/C [22]: 73.9% | viability, T/C [23]: 71.2% | viability, T/C [24]: 8.5% | viability, T/C [25]: 111% | viability, T/C [26]: 116% | viability, T/C [27]: 63% | viability, T/C [28]: 77.1% | viability, T/C [29]: 64.3% | viability, T/C [30]: 7.59% | viability, T/C [31]: 122% | viability, T/C [32]: 112% | viability, T/C [33]: 73.5% | viability, T/C [34]: 89% | viability, T/C [35]: 53% | viability, T/C [36]: 6.97%

CC(C)NCC(C(=O)N1CCN(c2ncnc3c2C(C)CC3O)CC1)c1ccc(Cl)cc1 (stereo unspecified) + C#Cc1c(F)ccc2cc(O)cc(-c3ncc4c(N5CC6CCC(C5)N6)nc(OCC56CCCN5CC(F)C6)nc4c3F)c12
IC50 (second compound 0.0316 µM): > 10 µM | IC50 (second compound 0.1 µM): > 10 µM | IC50 (second compound 0.316 µM): > 10 µM | IC50 (second compound 1 µM): > 10 µM | IC50 (second compound 3.16 µM): 0.473 µM | IC50 (second compound 10 µM): 1.21 µM | viability, T/C [13]: 85.7% | viability, T/C [14]: 129% | viability, T/C [15]: 96% | viability, T/C [16]: 76% | viability, T/C [17]: 80.2% | viability, T/C [18]: 91.4% | viability, T/C [19]: 108% | viability, T/C [20]: 114% | viability, T/C [21]: 80.3% | viability, T/C [22]: 77.3% | viability, T/C [23]: 88% | viability, T/C [24]: 86% | viability, T/C [25]: 104% | viability, T/C [26]: 117% | viability, T/C [27]: 78.1% | viability, T/C [28]: 84.9% | viability, T/C [29]: 71.9% | viability, T/C [30]: 80.5% | viability, T/C [31]: 109% | viability, T/C [32]: 125% | viability, T/C [33]: 76.5% | viability, T/C [34]: 59.5% | viability, T/C [35]: 63.4% | viability, T/C [36]: 52.5% | viability, T/C (second compound 3.16 µM, first compound 0.0316 µM): 101% | viability, T/C (second compound 3.16 µM, first compound 0.1 µM): 83.8% | viability, T/C (second compound 3.16 µM, first compound 0.316 µM): 50.7% | viability, T/C (second compound 3.16 µM, first compound 1 µM): 48.4% | viability, T/C (second compound 3.16 µM, first compound 3.16 µM): 38.5% | viability, T/C (second compound 3.16 µM, first compound 10 µM): 34.7% | viability, T/C (second compound 10 µM, first compound 0.0316 µM): 67.8% | viability, T/C (second compound 10 µM, first compound 0.1 µM): 76.6% | viability, T/C (second compound 10 µM, first compound 0.316 µM): 57.6% | viability, T/C (second compound 10 µM, first compound 1 µM): 47.1% | viability, T/C (second compound 10 µM, first compound 3.16 µM): 44.5% | viability, T/C (second compound 10 µM, first compound 10 µM): 21.1%

CC(C)NCC(C(=O)N1CCN(c2ncnc3c2C(C)CC3O)CC1)c1ccc(Cl)cc1 (stereo unspecified) + C=CC(=O)N1CCN(c2nc(OCC3CCCN3C)nc3c(F)c(-c4nc(N)cc(C)c4C(F)(F)F)c(Cl)cc23)C(C)C1
IC50 (second compound 0.00316 µM): > 10 µM | IC50 (second compound 0.01 µM): > 10 µM | IC50 (second compound 0.0316 µM): > 10 µM | IC50 (second compound 0.1 µM): > 10 µM | IC50 (second compound 0.316 µM): > 10 µM | IC50 (second compound 1 µM): > 10 µM | viability, T/C [1]: 90.5% | viability, T/C [2]: 152% | viability, T/C [3]: 89% | viability, T/C [4]: 91% | viability, T/C [5]: 93.3% | viability, T/C [6]: 110% | viability, T/C [7]: 133% | viability, T/C [8]: 153% | viability, T/C [9]: 91% | viability, T/C [10]: 78.3% | viability, T/C [11]: 104% | viability, T/C [12]: 127% | viability, T/C [13]: 125% | viability, T/C [14]: 160% | viability, T/C [15]: 90.2% | viability, T/C [16]: 89.8% | viability, T/C [17]: 93.5% | viability, T/C [18]: 125% | viability, T/C [19]: 176% | viability, T/C [20]: 154% | viability, T/C [21]: 93.1% | viability, T/C [22]: 85.4% | viability, T/C [23]: 80.6% | viability, T/C [24]: 120% | viability, T/C [25]: 147% | viability, T/C [26]: 153% | viability, T/C [27]: 88.5% | viability, T/C [28]: 96.6% | viability, T/C [29]: 73.4% | viability, T/C [30]: 118% | viability, T/C [31]: 175% | viability, T/C [32]: 155% | viability, T/C [33]: 130% | viability, T/C [34]: 95.1% | viability, T/C [35]: 80.7% | viability, T/C [36]: 95.9%
